Our source for the IC50 values is patent US20230159469A1, “NOVEL PHTHALAZINE DERIVATIVE HAVING ECTONUCLOEOTIDE PYROPHOSPHATASE/PHOSPHODIESTE RASE INHIBITORY ACTIVITY, AND USE THEREOF” (TXINNO BIOSCIENCE INC., priority 2020, published 2023).

Where a name gives a salt, the structure may show the parent alone.

The test addresses T1, human recombinant ENPP1 (Homo sapiens, UniProt P22413).
T1 construct: purchased R & D systems
T1 sequence (P22413 1-925): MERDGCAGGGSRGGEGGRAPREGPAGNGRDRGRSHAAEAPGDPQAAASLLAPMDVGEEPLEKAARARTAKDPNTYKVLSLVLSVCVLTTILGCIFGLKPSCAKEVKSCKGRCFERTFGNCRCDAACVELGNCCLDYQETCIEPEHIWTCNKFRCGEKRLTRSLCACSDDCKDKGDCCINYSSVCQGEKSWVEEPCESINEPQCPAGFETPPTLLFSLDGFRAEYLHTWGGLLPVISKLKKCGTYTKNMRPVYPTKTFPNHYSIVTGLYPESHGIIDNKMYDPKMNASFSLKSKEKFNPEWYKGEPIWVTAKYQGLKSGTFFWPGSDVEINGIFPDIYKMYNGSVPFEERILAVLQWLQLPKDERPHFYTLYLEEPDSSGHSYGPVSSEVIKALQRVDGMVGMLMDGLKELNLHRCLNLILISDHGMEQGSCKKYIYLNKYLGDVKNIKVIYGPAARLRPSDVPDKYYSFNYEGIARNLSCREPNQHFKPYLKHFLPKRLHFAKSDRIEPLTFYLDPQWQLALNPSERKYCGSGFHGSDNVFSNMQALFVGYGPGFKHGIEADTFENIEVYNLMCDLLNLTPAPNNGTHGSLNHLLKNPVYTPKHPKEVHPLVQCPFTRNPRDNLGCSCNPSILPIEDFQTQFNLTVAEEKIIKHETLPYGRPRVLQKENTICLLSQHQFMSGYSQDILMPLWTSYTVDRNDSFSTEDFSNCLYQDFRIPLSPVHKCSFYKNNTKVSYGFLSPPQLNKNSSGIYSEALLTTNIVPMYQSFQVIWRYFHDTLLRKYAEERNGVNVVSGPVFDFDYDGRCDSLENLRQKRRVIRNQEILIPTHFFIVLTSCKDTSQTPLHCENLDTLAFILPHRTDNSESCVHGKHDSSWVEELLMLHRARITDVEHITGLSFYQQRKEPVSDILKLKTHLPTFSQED
The experiment in a line: ENPP1 enzyme assay with cGAMP substrate (AMP-Glo luminescence). Type of test: biochemical. Particulars: human recombinant ENPP1 3 ng/reaction, cGAMP 5 μM, 37° C. 90 minutes, read-out: Enzymatic activity (ENPP1 IC50). As to the method: ENPP1 hydrolyzes nucleotides or nucleotide derivatives to produce nucleoside -5′-monophosphate and pyrophosphate. in addition, ENPP1 hydrolyzes 2′,3′-cGAMP to produce 5′-adenosine monophosphate (AMP) and 5′-guanosine monophosphate (GMP). AMP produced from the reaction is measured using the AMP-Glo® kit (Promega). The AMP-Glo® kit contains two reagents. The first reagent terminates the AMP-producing enzymatic reaction, removes ATP and converts the produced AMP into ADP. The second reagent converts ADP to ATP which is used to generate luminescence in the luciferase reaction. The amount of luminescence measured is proportional to the amount of AMP produced by ENPP1.
The final reaction mixture contains 50 mM Tris (pH 8.5) buffer, 250 mM NaCl, 0.5 mM. CaCl2, 1 μM ZnCl2, 5% glycerol and 1% DMSO. […] The reaction was initiated by addition of cGAMP (at a final concentration of 5 μM) and reacted at 37° C. for 90 minutes. At the end of the reaction, 10 μl of the AMP-Glo first reagent was added to stop the reaction and the result was stored at room temperature for […]. After storage, 20 μl of an AMP detection solution (a mixture of AMP-Glo II reagent and Kinase-Gio at a ratio of 1:100) was added and stored at room. temperature for 1 hour. Luminescence signals were measured using a Victor® plate reader (Perkin Elmer). The maximal activity control (containing enzymes and substrates only in the presence of 1% DMSO; MAX) and the minimal activity control (containing substrates and 1% DMSO; MIN) were evaluated simultaneously. In each experiment, serially diluted reference ENPP1 inhibitors were tested together. IC50, indicating % residual activity versus compound concentration was determined by fitting inhibition curves using the 3-parameter analysis of GraphPad Prism® software. Serially diluted samples of one compound were tested two or more times and an average IC50 of each compound was calculated.
On to `O=c1[nH]nc(-c2ccccc2)c2ccccc12` [Compound No. 1, 4-phenylphthalazin-1(2H)-one], for which the IC50 lay in the range of 1 to 10 µM.

For `CC(C)(C)OC(=O)Nc1cccc(-c2n[nH]c(=O)c3ccccc23)c1` [Compound No. 2, tert-butyl (3-(4-oxo-3,4-dihydrophthalazin-1-yl)phenyl)carbamate], the IC50 is over 10 µM.

Take `Cn1nc(-c2cccc(NC(=O)OC(C)(C)C)c2)c2ccccc2c1=O` [Compound No. 3, tert-butyl (3(3-methyl-4-oxo-3,4-dihydrophthalazin-1-yl)phenyl)carbamate]: the IC50 was over 10 µM.

`CC(C)(C)OC(=O)Nc1cccc(-c2nn(Cc3ccccc3)c(=O)c3ccccc23)c1` [Compound No. 4, tert-butyl (3(3-benzyl-4-oxo-3,4-dihydrophthalazin-1-yl)phenyl)carbamate]: the IC50 is over 10 µM.

As to `CC(C)(C)OC(=O)NCc1cccc(-c2n[nH]c(=O)c3ccccc23)c1` [Compound No. 5], the IC50 is over 10 µM.

`Cn1nc(-c2cccc(CNC(=O)OC(C)(C)C)c2)c2ccccc2c1=O` [Compound No. 6, tert-butyl 3-(3-methyl-4-oxo-3,4-dihydrophthalazin-1-yl) benzyl carbamate]: the IC50 is over 10 µM.

For `Cn1nc(-c2ccc(CNC(=O)OC(C)(C)C)cc2)c2ccccc2c1=O` [Compound No. 9], the IC50 was over 10 µM.

On to `CCn1nc(-c2ccc(CNC(=O)OC(C)(C)C)cc2)c2ccccc2c1=O` [Compound No. 10, tert-butyl (4-(3-ethyl-4-oxo-3,4-dihydrophthalazin-1-yl)benzyl)carbamate], for which the IC50 is over 10 µM.

Regarding `CC(C)(C)OC(=O)NCc1ccc(-c2nn(-c3ccccc3)c(=O)c3ccccc23)cc1` [Compound No. 12, tert-butyl (4-(4-oxo-3-phenyl-3,4-dihydrophthalazin-1-yl)benzyl)carbamate], the IC50 was over 10 µM.

Turning to `CC(C)(C)OC(=O)NCc1ccc(-c2nn(Cc3ccccc3)c(=O)c3ccccc23)cc1` [Compound No. 13], the IC50 was over 10 µM.

Consider `CC(C)(C)OC(=O)NCc1ccc(-c2nn(Cc3ccc(F)cc3)c(=O)c3ccccc23)cc1` [Compound No. 14, tert-butyl (4-(3-(4-fluorobenzyl)-4-oxo-3,4-dihydrophthalazin-1-yl)benzyl)carbamate], for which the IC50 is over 10 µM.

For `COc1ccc2c(=O)[nH]nc(-c3ccc(CNC(=O)OC(C)(C)C)cc3)c2c1` [Compound No. 15, tert-butyl (4-(7-methoxy-4-oxo-3,4-dihydrophthalazin-1-yl)benzyl)carbamate], the IC50 was over 10 µM.

With `COc1ccc2c(-c3ccc(CNC(=O)OC(C)(C)C)cc3)nn(C)c(=O)c2c1` [Compound No. 18, tert-butyl (4-(6-methoxy-3-methyl-4-oxo-3,4-dihydrophthalazin-1-yl)benzyl)carbamate], the IC50 was over 10 µM.

In the case of `COc1cc2c(-c3ccc(CNC(=O)OC(C)(C)C)cc3)nn(C)c(=O)c2cc1OC` [Compound No. 20, tert-butyl (4-(6,7-dimethoxy-3-methyl-4-oxo-3,4-dihydrophthalazin-1-yl)benzyl)carbamate], the IC50 was over 10 µM.

As for `CC(C)(C)OC(=O)NCc1ccc(-c2n[nH]c(=O)c3ccccc23)cc1C(F)(F)F` [Compound No. 24, tert-butyl 4-(4-oxo-3,4-dihydrophthalazin-1-yl)-2-(trifluoromethyl)benzyl carbamate], the IC50 was over 10 µM.

Regarding `CC(C)(C)OC(=O)N1CCc2cc(-c3n[nH]c(=O)c4ccccc34)ccc2C1` [Compound No. 26, tert-butyl 6-(4-oxo-3,4-dihydrophthalazin-1-yl)-3,4-dihydroisoquinoline-2(1H)-carboxylate], the IC50 was over 10 µM.

Turning to `Cn1nc(-c2ccc3c(c2)CCN(C(=O)OC(C)(C)C)C3)c2ccccc2c1=O` [Compound No. 27, tert-butyl-6-(3-methyl-4-oxo-3,4-dihydrophthalazin-1-yl)-3,4-dihydroisoquinoline-2(1H)-carboxylate], the IC50 was over 10 µM.

Take `COc1cc2c(-c3ccc4c(c3)CCN(C(=O)OC(C)(C)C)C4)n[nH]c(=O)c2cc1OC` [Compound No. 28, tert-butyl 6-(6,7-dimethoxy-4-oxo-3,4-dihydrophthalazin-1-yl)-3,4-dihydroisoquinoline-2(1H)-carboxylate]: the IC50 was over 10 µM.

Turning to `COc1cc2c(-c3ccc4c(c3)CCN(C(=O)OC(C)(C)C)C4)nn(C)c(=O)c2cc1OC` [Compound No. 29, tert-butyl-6-(6,7-dimethoxy-3-methyl-4-oxo-3,4-dihydrophthalazin-1-yl)-3,4-dihydroisoquinoline-2(1H)-carboxylate], the IC50 was over 10 µM.

Regarding `Nc1cccc(-c2n[nH]c(=O)c3ccccc23)c1` [Compound No. 30, 4-(3-aminophenyl)phthalazin-1(2H)-one hydrochloride], the IC50 was over 10 µM.

`Cn1nc(-c2cccc(N)c2)c2ccccc2c1=O` [Compound No. 31, 4-(3-aminophenyl)-2-methylphthalazin-1(2H)-one hydrochloride]: the IC50 was over 10 µM.

As for `Nc1cccc(-c2nn(Cc3ccccc3)c(=O)c3ccccc23)c1` [Compound No. 32, 4-(3-aminophenyl)-2-benzylphthalazin-1(2H)-one hydrochloride], the concentration for half-maximal inhibition (IC50) is over 10 µM.

Turning to `NCc1cccc(-c2n[nH]c(=O)c3ccccc23)c1` [Compound No. 33, 4-(3-(aminomethyl)phenyl)phthalazin-1(2H)-one hydrochloride], the IC50 is over 10 µM.

In the case of `NCc1cccc(-c2nn(Cc3ccccc3)c(=O)c3ccccc23)c1` [Compound No. 35, 4-(3-(aminomethyl)phenyl)-2-benzylphthalazin-1(2H)-one hydrochloride], the IC50 was over 10 µM.

With `Cn1nc(-c2ccc(CN)cc2)c2ccccc2c1=O` [Compound No. 37, 4-(4-aminomethyl)phenyl)-2-methylphthalazin-1(2H)-one hydrochloride], the IC50 was under 1 µM.

Consider `CCn1nc(-c2ccc(CN)cc2)c2ccccc2c1=O` [Compound No. 38, 4-(4-(aminomethyl)phenyl)-2-ethylphthalazin-1(2H)-one hydrochloride], for which the IC50 was under 1 µM.

Take `CC(C)n1nc(-c2ccc(CN)cc2)c2ccccc2c1=O` [Compound No. 39, 4-(4-(aminomethyl)phenyl)-2-isopropylphthalazin-1-(2H)-one hydrochloride]: the IC50 was over 10 µM.

Regarding `NCc1ccc(-c2nn(-c3ccccc3)c(=O)c3ccccc23)cc1` [Compound No. 40, 4-(4-aminomethyl)phenyl)-2-phenylphthalazin-1(2H)-one hydrochloride], the IC50 fell in the range of 1 to 10 µM.

`NCc1ccc(-c2nn(Cc3ccccc3)c(=O)c3ccccc23)cc1` [Compound No. 41, 4-(4-aminomethyl)phenyl)-2-benzylphthalazin-1(2H)-one hydrochloride]: the IC50 is 1 to 10 µM.

In the case of `NCc1ccc(-c2nn(Cc3ccc(F)cc3)c(=O)c3ccccc23)cc1` [Compound No. 42, 4-(4-(aminomethyl)phenyl)-2-(4-fluorobenzyl)phthalazin-1(2H)-one hydrochloride], the IC50 lay within 1 to 10 µM.

With `COc1ccc2c(=O)[nH]nc(-c3ccc(CN)cc3)c2c1` [Compound No. 43, 4-(4-(aminomethyl)phenyl)-6-methoxyphthalazin-1(2H)-one hydrochloride], the IC50 was under 1 µM.
